Laboratory results from patent publication US20100113599A1, “AMPHIPATHIC CARBOXYLATES FOR THE TREATMENT OF IMMUNE-RELATED DISORDERS” (Syndromex Ltd. c/o Yissum Research Development Company, of, priority 2007, published 2010).

Assays:
gp130 = test: Overexpressed gp130 protein levels in transfected Hek293 cells (Western blot); type: cell-based; conditions: Hek293 transfected with gp130 expression vector; 200 mM M16αα 9 h, 20 h after transfection
Protocol: Hek293 cells were transfected with an expression vector for gp130. Following 20 h M16αα ([…]) was added for 9 h. Western blots of cell lysates were reacted with anti gp130 antibodies and normalized by β-actin. Abbreviations: cont. (control).
In order to examine the mode of action of M16αα in reducing gp130 protein levels, Hek293 cells were transfected with an expression vector for the gp130 protein. Following 20 h after transfection, M16αα ([…]) was added for 9 h. Western blots of cells lysates were reacted with anti-gp130 antibodies and normalized by β-actin. […] This effect was clearer when smaller amounts of plasmid were used for transfection (0.2 microgram).

STAT3 = test: IL-6-induced STAT3 phosphorylation in Hek293 kidney cells (Western blot); type: cell-based; conditions: 250 μM 9 h, serum free medium 0.2% Albumin, IL-6 20 ng/ml last 5.5 h
Protocol: Hek293 cells were incubated for 9 h with M16αα (250 μM) in serum free medium containing 0.2% Albumin. IL-6 (20 ng/ml) was added during the last 5.5 h period. Western blots of cell lysates were reacted with anti gp130 and anti P-STAT3 (Y705) antibodies and normalized by β-actin. Abbreviations: cont. (control).
The examined effect of MEDICA drugs on expression of APP, was further analyzed by analyzing the effect of M16αα on downstream elements in the signaling pathway leading to expression of APP. Signal Transducers and Activators of Transcription 3 (STAT3), is a transcription factor phosphorylated by JAK kinases in response to cytokine activation of a cell surface receptor tyrosine kinases. Cytokines that activate STAT3 include growth hormone, IL-6 family cytokines, Oncostatin, LIF, CNTF and G-CSF, Leptin and others. As illustrated by FIG. 1, upon cytokine activation, the STAT3 proteins dimerize and are localized to the nucleus where they activate transcription of APP as well as of other cytokine-responsive genes coding for cell survival, growth and proliferation. Therefore, the inventors next examined whether the effect of MEDICA drugs on the expression of APP is a result of interfering with STAT3 transcription activity or whether MEDICA drugs are involved in a more upstream element of the transduction pathway such as the gp130 receptor. […]

fibrinogen α mRNA = test: Fibrinogen mRNA expression in IL-6-stimulated HepG2 cells (real time RT-PCR); type: cell-based, human; conditions: 200 mM M16αα 40 h, control as well as IL-6 (20 ng/ml, last 15 h) induced cells, normalized by GAPDH
Protocol: HepG2 cells were incubated for 40 h with […] M16αα. IL-6 (20 ng/ml) was added for the last 15 h. Total RNA was prepared and was analyzed by real time RT-PCR for fibrinogen a mRNA. Transcript levels were normalized by GAPDH.
The hypolipidemic effect of both M16ααα and/or M16ββ (MEDICA drugs) and its application in the treatment of Metabolic Syndrome, led the inventors to try and examine the effect of these drugs on another crucial risk factor in Metabolic Syndrome CVD patients, namely, the inflammatory indications. These indications are identified by markers like C-reactive protein (CRP), Serum amyloid A (SAA), fibrinogen and ICAM that promote atherosclerotic CVD. To evaluate the possible anti-inflammatory effect of MEDICA drugs, the inventors first examined the effect of M16αα, on the expression of different acute phase proteins (APP). Human liver cells (HepG2 cells) were stimulated with IL-6 and incubated with the MEDICA drug, M16αα. Total RNA was analyzed by real time PCR for expression of mRNA of different acute phase proteins (APP).

## CC(C)(CCCCCCCCCCCCC(C)(C)C(=O)O)C(=O)O [M16αα, 2,2,15,15-tetramethyl-hexadecanedioic acid]
gp130
  gp130 protein levels (overexpressed): clear reduction
STAT3
  IL-6-induced phosphorylation of STAT3 Y705: Inhibition
Fibrinogen α mRNA
  fibrinogen mRNA levels: clearly reduced
